Values joined by “and” are separate entries in the source; they are usually repeats but may differ in a detail not shown here. Identical values can stand only once. Toxic doses and inconclusive results are not listed. Cut-off read from the data, not from the text of the source: active = T/C of 150% or more; inactive = T/C below 125%.
Test system: L1210 leukemia ip in BDF1 mice, survival T/C
Assay: NCI In Vivo Anticancer Drug Screen. Data for tumor model L1210 Leukemia (intraperitoneal) in B6D2F1 (BDF1) mice
Conditions: endpoint: mean survival time, higher = longer survival
In short: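 Ratio derived from survival: compound-dosed mice over vehicle-dosed mice, all bearing a transplantable tumor.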

[1] = dose: 100.0 mg/kg/injection, schedule: Q04DX003 (ip), vehicle: Klucel (hydroxypropylcellulose) (HPC)
[2] = dose: 200.0 mg/kg/injection, schedule: Q04DX003 (ip), vehicle: Klucel (hydroxypropylcellulose) (HPC)
[3] = dose: 100.0 mg/kg/injection, schedule: Q01DX009 (ip), vehicle: Klucel (hydroxypropylcellulose) (HPC)
[4] = dose: 200.0 mg/kg/injection, schedule: Q01DX009 (ip), vehicle: Klucel (hydroxypropylcellulose) (HPC)
[5] = dose: 400.0 mg/kg/injection, schedule: Q01DX009 (ip), vehicle: Klucel (hydroxypropylcellulose) (HPC)
[6] = dose: 100.0 mg/kg/injection, schedule: Q04DX002 (ip), vehicle: Klucel (hydroxypropylcellulose) (HPC)
[7] = dose: 200.0 mg/kg/injection, schedule: Q04DX002 (ip), vehicle: Klucel (hydroxypropylcellulose) (HPC)
[8] = dose: 400.0 mg/kg/injection, schedule: Q04DX002 (ip), vehicle: Klucel (hydroxypropylcellulose) (HPC)
[9] = dose: 100.0 mg/kg/injection, schedule: Q01DX001 (ip), vehicle: Klucel (hydroxypropylcellulose) (HPC)
[10] = dose: 200.0 mg/kg/injection, schedule: Q01DX001 (ip), vehicle: Klucel (hydroxypropylcellulose) (HPC)
[11] = dose: 400.0 mg/kg/injection, schedule: Q01DX001 (ip), vehicle: Klucel (hydroxypropylcellulose) (HPC)
[12] = dose: 400.0 mg/kg/injection, schedule: Q04DX003 (ip), vehicle: Klucel (hydroxypropylcellulose) (HPC)
[13] = dose: 50.0 mg/kg/injection, schedule: Q01DX009 (ip), vehicle: Klucel (hydroxypropylcellulose) (HPC)
[14] = dose: 100.0 mg/kg/injection, schedule: Q04DX003 (ip), vehicle: saline with Tween-80
[15] = dose: 50.0 mg/kg/injection, schedule: Q01DX009 (ip), vehicle: saline with Tween-80
[16] = dose: 100.0 mg/kg/injection, schedule: Q01DX001 (ip), vehicle: saline with Tween-80
[17] = dose: 100.0 mg/kg/injection, schedule: Q01DX009 (ip), vehicle: saline with Tween-80
[18] = dose: 100.0 mg/kg/injection, schedule: Q04DX002 (ip), vehicle: saline with Tween-80
[19] = dose: 200.0 mg/kg/injection, schedule: Q01DX001 (ip), vehicle: saline with Tween-80
[20] = dose: 200.0 mg/kg/injection, schedule: Q01DX009 (ip), vehicle: saline with Tween-80
[21] = dose: 200.0 mg/kg/injection, schedule: Q04DX002 (ip), vehicle: saline with Tween-80
[22] = dose: 200.0 mg/kg/injection, schedule: Q04DX003 (ip), vehicle: saline with Tween-80
[23] = dose: 400.0 mg/kg/injection, schedule: Q01DX001 (ip), vehicle: saline with Tween-80
[24] = dose: 400.0 mg/kg/injection, schedule: Q01DX009 (ip), vehicle: saline with Tween-80
[25] = dose: 400.0 mg/kg/injection, schedule: Q04DX002 (ip), vehicle: saline with Tween-80
[26] = dose: 75.0 mg/kg/injection, schedule: Q01DX001 (ip), vehicle: saline
[27] = dose: 150.0 mg/kg/injection, schedule: Q01DX001 (ip), vehicle: saline
[28] = dose: 100.0 mg/kg/injection, schedule: Q01DX001 (ip), vehicle: carboxymethylcellulose (CMC)
[29] = dose: 200.0 mg/kg/injection, schedule: Q01DX001 (ip), vehicle: carboxymethylcellulose (CMC)

Measured: T/C

CC(=O)Nc1cccc2nsnc12
inactive: [1] 100 % of control | [2] 93 % of control

O=C(O)CCOC(C[N+](=O)[O-])C(Cl)(Cl)Cl (stereo unspecified)
inactive: [3] 96 % of control | [4] 97 % of control | [5] 94 % of control

CC(=O)OCCc1cccc(C)c1
inactive: [6] 104 % of control | [7] 115 % of control | [8] 108 % of control

CCc1c([N+](=O)[O-])oc2ccc(Cl)cc12
inactive: [3] 103 % of control | [4] 105 % of control | [5] 107 % of control

COc1cc(C)c2c(c1)C(=O)OC2=O
inactive: [9] 105 % of control | [1] 100 % of control | [10] 108 % of control | [2] 103 % of control | [11] 111 % of control | [12] 97 % of control

[CH3][Sn]([CH3])([CH3])[c]1ccc(-c2ccccc2)cc1
inactive: dose: 25.0 mg/kg/injection, schedule: Q04DX002 (ip), vehicle: Klucel (hydroxypropylcellulose) (HPC) 92 % of control | dose: 50.0 mg/kg/injection, schedule: Q04DX002 (ip), vehicle: Klucel (hydroxypropylcellulose) (HPC) 95 % of control | [6] 100 % of control

COc1ccc(N=C2C(=O)Nc3ccc(Br)cc32)cc1
inactive: [6] 107 % of control | [7] 96 % of control | [8] 107 % of control

Clc1ccc(Cl)c(CBr)c1Cl
inactive: dose: 25.0 mg/kg/injection, schedule: Q04DX003 (ip), vehicle: Klucel (hydroxypropylcellulose) (HPC) 98 % of control | [13] 98 % of control | dose: 50.0 mg/kg/injection, schedule: Q04DX003 (ip), vehicle: Klucel (hydroxypropylcellulose) (HPC) 101 % of control | [3] 88 % of control | [1] 101 % of control | [14] 100 % of control | [4] 90 % of control

Cc1ncc(CO)c(/C=N\OCc2cccc(Cl)c2)c1O
inactive: dose: 12.5 mg/kg/injection, schedule: Q01DX009 (ip), vehicle: saline 100 % of control | dose: 25.0 mg/kg/injection, schedule: Q01DX009 (ip), vehicle: saline 100 % of control

O=C(c1ccccc1[N+](=O)[O-])C(Br)C(Br)c1cccc2ccccc12 (stereo unspecified)
inactive: [15] 96 % of control and 91 % of control | [16] 96 % of control | [17] 93 % of control and 94 % of control | [18] 93 % of control | [14] 90 % of control | [19] 96 % of control | [20] 86 % of control and 89 % of control | [21] 88 % of control and 90 % of control | [22] 91 % of control | [23] 100 % of control | dose: 400.0 mg/kg/injection, schedule: Q04DX003 (ip), vehicle: saline with Tween-80 88 % of control

Cc1cccc(Cl)c1NC(=O)CC#N
inactive: [17] 97 % of control | [18] 97 % of control | [20] 95 % of control | [21] 97 % of control | [24] 100 % of control | [25] 97 % of control

C=CCC1(C(C)CCC)C(=O)NC(=S)NC1=O (stereo unspecified)
inactive: [26] 100 % of control | [27] 98 % of control | dose: 300.0 mg/kg/injection, schedule: Q01DX001 (ip), vehicle: saline 90 % of control

CC(C)(C)c1ccc(OS(=O)(=O)c2ccccc2[N+](=O)[O-])cc1
inactive: [9] 102 % of control | [10] 98 % of control | [11] 95 % of control

CCCCOCCOC(=O)CC(/C=C(/C)CC(C)(C)C)C(=O)OCCOCCCC (stereo unspecified)
inactive: dose: 222.0 mg/kg/injection, schedule: Q01DX Z (ip), vehicle: methylcellulose (MC) 101 % of control | dose: 333.0 mg/kg/injection, schedule: Q01DX Z (ip), vehicle: methylcellulose (MC) 108 % of control | dose: 500.0 mg/kg/injection, schedule: Q01DX Z (ip), vehicle: methylcellulose (MC) 96 % of control

O=C(OCC(COC(=O)c1ccccc1)(COC(=O)c1ccccc1)COC(=O)c1ccccc1)c1ccccc1
inactive: [3] 91 % of control | [1] 91 % of control | [4] 105 % of control | [2] 99 % of control | [5] 96 % of control | [12] 98 % of control

Cc1c(Cl)cccc1NC(=O)Nc1cccc2c(O)cccc12
inactive: [15] 92 % of control | [16] 89 % of control | [18] 86 % of control and 89 % of control | [19] 90 % of control | [21] 86 % of control and 91 % of control | [22] 88 % of control | [23] 89 % of control | [24] 94 % of control and 87 % of control | [25] 87 % of control and 89 % of control

CC1=C2C(=CC(C)(C)[C@@H]2O)C(=O)[C@](C)(O)C12CC2
inactive: dose: 75.0 micrograms/kg/injection, schedule: Q01DX Z (ip), vehicle: saline 98 % of control | dose: 150.0 micrograms/kg/injection, schedule: Q01DX Z (ip), vehicle: saline 104 % of control | dose: 300.0 micrograms/kg/injection, schedule: Q01DX Z (ip), vehicle: saline 106 % of control | dose: 600.0 micrograms/kg/injection, schedule: Q01DX Z (ip), vehicle: saline 106 % of control

O=C1CC(c2ccccc2)C(c2ccccc2)C(=O)N1 (stereo unspecified)
inactive: [26] 90 % of control | [27] 90 % of control

Nc1cccc(-c2csc(N)n2)c1
inactive: [28] 100 % of control | [29] 100 % of control

COc1cc(=O)oc(/C=C/C=C/C=C/C(C)=C\C2(C)OC(C)C(C)(O)C2O)c1C (stereo unspecified)
inactive: dose: 12.5 mg/kg/injection, schedule: Q01DX009 (ip), vehicle: other 93 % of control | dose: 25.0 mg/kg/injection, schedule: Q01DX009 (ip), vehicle: other 100 % of control | dose: 50.0 mg/kg/injection, schedule: Q01DX009 (ip), vehicle: other 93 % of control

O=C(SC(=S)NCCNC(=S)SC(=O)c1ccccc1)c1ccccc1
inactive: dose: 50.0 mg/kg/injection, schedule: Q04DX002 (ip), vehicle: saline with Tween-80 95 % of control | [18] 87 % of control | [21] 98 % of control

CC(C)c1ccc(C(=O)C2CC2)cc1
inactive: dose: 25.0 mg/kg/injection, schedule: Q01DX009 (ip), vehicle: Klucel (hydroxypropylcellulose) (HPC) 93 % of control | [13] 101 % of control | [3] 93 % of control and 91 % of control | [1] 96 % of control | [2] 96 % of control | [12] 94 % of control

Nc1cccc(CNC(=O)COc2cccc(Cl)c2)c1
inactive: [13] 116 % of control | [3] 109 % of control | [1] 96 % of control | [4] 120 % of control | [2] 96 % of control | [12] 104 % of control

N#CCc1ccc(C(=O)O)cc1
inactive: [28] 106 % of control | [29] 92 % of control
